Data as given in patent publication US9415107B2, “Compositions and methods for the treatment of addiction and other neuropsychiatric disorders” (priority 2005, dated 2016).
“Also recorded” adds a separate entry of the source.

Assays:
adult male Wistar rats [1] = experiment: Intravenous cocaine self-administration under a multiple, alternating schedule of food reinforcement and cocaine self-administration; assay type: in vivo, rat; settings: for cocaine self-administration (number of infusions): ip pretreatment; for cocaine self-administration: pretreatment with the drug alone, general statement
Method: Adult male Wistar rats were trained under a multiple, alternating schedule of cocaine and food self-administration. This schedule consisted of alternating periods of cocaine access and food reinforcement. In some instances, as described further below, three doses of cocaine (0.125, 0.25, or 0.50 mg/kg/infusion) were tested. Rats were also periodically trained with saline substitution (cocaine extinction) and food extinction during the same session.
More specifically, adult male Wistar rats were implanted with chronic jugular catheters. Following recovery from surgery, the rats were trained to respond under a multiple, alternating schedule of food reinforcement and cocaine self-administration. Food-maintained responding was used to control for the non-specific motor effects of the various treatments. During the food component of the schedule, the stimulus light located above the food response lever was illuminated to indicate the availability of food reinforcement. […] A 25-second timeout followed the delivery of each food pellet. During this timeout, the stimulus light was darkened and responses on the food lever were counted but had no scheduled consequences. Responding on the other (cocaine) lever during the food component also had no scheduled consequences. […] Following 15 minutes of access to food, all stimulus lights in the chamber were darkened for a 1-minute timeout. Following the timeout, the stimulus light above the cocaine response lever was illuminated to indicate the availability of cocaine (0.125, 0.25, or 0.5 mg/kg/infusion). […] A 20-second timeout period followed each infusion. […] After 15 minutes of access to cocaine and a 1-minute timeout, the rats were again allowed 15 minutes access to the food component of the schedule. Access to food and cocaine alternated in this manner every 15 minutes during the two hour behavioral sessions so that each rat was exposed to food and cocaine for four 15-minute periods each. Each behavioral session began with 15 minutes access to either food or cocaine, and this alternated daily. Stable baselines of responding were established when the total number of cocaine and food presentations, as well as the number of presentations during each of the four exposures each session, varied less than 10% for three consecutive sessions. At least three different doses of cocaine (e.g., 0.125, 0.25, and 0.5 mg/kg/infusion) were tested. Rats were first trained to self-administer 0.25 mg/kg/infusion, our standard dose of cocaine. When responding stabilized, the dose was changed to 0.125 or 0.5 mg/kg/infusion as appropriate.
Once stable baselines of responding were obtained, dose-response curves for the various compounds were individually generated for each rat. Rats were treated with each dose at least twice with a minimum of two days of baseline cocaine self-administration interspersed between each test. Each group of rats was tested with only two of the test compounds to minimize potential carryover effects. […] This rationale guided the selection of the doses of each of the compounds in the combination studies. Each experimental group consisted of between 8 and 10 rats.

adult male Wistar rats [2] = experiment: Cue-induced reinstatement of extinguished cocaine seeking (model of relapse); assay type: in vivo, rat; settings: for reinstatement of extinguished cocaine seeking: pretreatment with the drug alone, general statement
Excerpt: In our model, rats were exposed to alternating 15-minute periods of access to cocaine self-administration and food reinforcement. Food was used to control for potential nonspecific, ataxis effects of the drugs and combinations. […] The other preclinical model we used is the cue-induced reinstatement of extinguished cocaine seeking model of relapse. In this model, rats are trained to self-administer cocaine and the ability of conditioned cues in the environment to reinstate extinguished responding is assessed and taken as a measure of relapse.
The experiments described herein were designed to investigate whether or not drug combinations identified as effective in reducing cocaine self-administration would also block the ability of conditioned cues to reinstate extinguished cocaine-seeking behavior. Adult male Wistar rats were implanted with chronic jugular catheters and trained to self-administer cocaine (0.25 mg/kg/infusion) by pressing one of the response levers in the experimental chamber (i.e., the “active” or “cocaine” lever) under a fixed-ratio four (FR4) schedule of reinforcement during daily 2-hour sessions conducted 5 days per week. At the start of each session, both levers were extended into the chamber and the stimulus light above the active lever was illuminated to indicate the availability of cocaine. […] A 20-second timeout period followed each infusion. The stimulus light above the active lever and the house light and tone compound stimulus were extinguished during the timeout period, and the light above the active lever was illuminated once the timeout ended. When responding on the active lever varied less than 20% for two consecutive days, the response requirement was increased to FR2. When similar stability was observed under the FR2 schedule or reinforcement, the response requirement was increased to the final ratio of four. The criteria for stable responding under the FR4 schedule of reinforcement was a minimum of 10 days of exposure to this schedule that concluded with at least three consecutive days when responding varied by less than 10%. […] Once stable cocaine self-administration was observed, rats were exposed to extinction; the rats were placed into the behavioral chambers, but responding on the “cocaine” (active) lever produced no programmed consequences. Extinction training continued until responding decreased to less than 20% of baseline self-administration. Then reinstatement testing commended. The rats were placed into the experimental chambers, both response levers were extended into the chamber, and the stimulus light above the “active” lever was illuminated as during self-administration training. […] Responding on the “active” lever during reinstatement testing was taken as an index of cocaine-seeking behavior. Each experimental group consisted of 8 to 10 rats.

male Wistar rats = experiment: Forced Swim Test (FST), animal model of depression
plasma corticosterone = experiment: Plasma corticosterone after metyrapone pretreatment; settings: pretreatment with metyrapone
[3] = Pharmacokinetic interaction between cocaine, metyrapone and oxazepam (plasma concentrations by GCMS); settings: presence of iv cocaine
Method: Adult male Wistar rats (90 to 120 days old) were implanted with chronic, indwelling jugular catheters and were allowed to recover from surgery. […] Thirty minutes following the drug combination or vehicle injection, the rats received intravenous injections of cocaine (0.25 mg/kg/infusion) every 2 minutes for 1 hour. After the final injection of cocaine, blood was collected from the catheter for the analysis of cocaine and its metabolites ecgonine methyl ester and benzoylecgonine. […] All drug concentrations were determined using GCMS procedures.

[4] = low, ineffective dose of the drug alone

SMILES | cocaine self-administration (number of infusions) (adult male Wistar rats [1]; high dose of the drug alone) | cocaine self-administration (number of infusions) (adult male Wistar rats [1]; [4]) | cocaine self-administration (adult male Wistar rats [1]) | reinstatement of extinguished cocaine seeking (adult male Wistar rats [2]) | cocaine seeking (responding on the active lever during reinstatement) (adult male Wistar rats [2]; chronic metyrapone 50 mg/kg, ip, once per day for 14 days) | immobility time in the FST (male Wistar rats; chronic administration, Met50 group (metyrapone 50 mg/kg alone)) | mean immobility time relative to vehicle (tolerance) (male Wistar rats; chronically treated groups that received only Ox or Met) | plasma corticosterone (plasma corticosterone) | minimally effective dose that reduced cocaine self-administration by at least 50% without affecting food-maintained responding (adult male Wistar rats [1]; drug alone) | effect on plasma concentrations of metyrapone or oxazepam [3]
Cc1nnc2n1-c1ccc(Cl)cc1C(c1ccccc1)=NC2 [alprazolam] | reduced cocaine self-administration | did not significantly affect cocaine self-administration | decrease | decrease |  |  |  |  |  | 
CC(C)(C(=O)c1cccnc1)c1cccnc1 [metyrapone] | reduced cocaine self-administration | did not significantly affect cocaine self-administration; also recorded: no longer affected cocaine self-administration | decrease; also recorded: significant dose-related decreases | decrease | reduced cocaine seeking to levels seen when only saline was delivered | showed a lessening of immobility time | equal to or exceeded the vehicle | significant dose-related decreases |  | 
CC(=O)N1CCN(c2ccc(OCC3COC(Cn4ccnc4)(c4ccc(Cl)cc4Cl)O3)cc2)CC1 (centres unmarked) [ketoconazole] |  | no effect; also recorded: did not significantly affect cocaine self-administration | decrease | decrease |  |  |  |  | 25 mg/kg | 
COC(=O)[C@H]1[C@@H](OC(=O)c2ccccc2)C[C@@H]2CC[C@H]1N2C [cocaine] |  |  |  |  |  |  |  |  |  | did not affect
CCCCN(CC)c1nc(C)nc2c1c(C)cn2-c1c(C)cc(C)cc1C [CP-154,526] | reduced cocaine self-administration | did not significantly affect cocaine self-administration | decrease | decrease |  |  |  |  |  | 
NCc1cc(=O)[nH]o1 [muscimol] | reduced cocaine self-administration | did not significantly affect cocaine self-administration |  |  |  |  |  |  |  | 
